Measured values reported in publication PMC9318536, “Novel Cyclic Peptides for Targeting EGFR and EGRvIII Mutation for Drug Delivery” (Pharmaceutics, 2022).
“Also recorded” adds a separate entry of the source. Where two headings read alike, the source gives them in different places. Marks after values point to notes of the source that are not given here. Positions of bridges follow the written chain, without caps; N, C: chain ends. Residues, ends and D or L forms follow the SMILES beside them. No end group written: not given here. *: point of attachment. Camptothecin(20S-OCO) = CC[C@@]1(OC(=O)*)C(=O)OCc2c1cc1n(c2=O)Cc2cc3ccccc3nc2-1; GABA = NCCCC(=O)O

Columns and labels:
[1] = tested on: DKMG cells; assay: XTT cytotoxicity of peptides, peptide-CPT conjugates and CPT on DKMG cells; assay type: cell-based; conditions: for cell viability relative to control untreated cells (IC50 could not be calculated) / IC50 / effect on cell viability (in words): XTT; for IC50: non-linear regression, mean ± SD, triplicate; for effect on cell viability (in words): 24 h pre-incubation protocol
Procedure: (§1) Cell growth in the presence of PDCs was measured by a commercial XTT assay kit (Cell Proliferation Kit, XTT based; Sartorius, Israel). The cells were seeded in 96-well plates (10^4 cells/well) and incubated overnight in a complete growth medium. They were then washed and re-cultured in 100 µL of fresh complete medium containing various concentrations of free drugs or PDCs, for 24, 48, and 72 h. The XTT solution was added to each well and the plate was further incubated for 2–3 h at 37 °C. The optical densities in the wells were measured at both 480 and 680 nm using a TECAN Infinite M200 ELISA reader. All tests were performed in triplicate, and each experiment was repeated three times.
(§2) The cytotoxicity of the PDCs was tested against H1299 and DKMG cells using two protocols. In the first protocol, cells were incubated in a complete medium containing a range of concentrations (0.5–50 µM) of P6, P9, P6-CPT, or P9-CPT for 6 h, after which, the medium was replaced with fresh, drug-free, complete medium, and the cells were cultured for an additional 24 h (designated as 6h24h) or 48 h (6h48h). In the second protocol, cells were exposed continuously to free drugs or PDCs for 24, 48, and 72 h. For each case, during the culture period, cell cytotoxicity was determined as described above and IC50 values were calculated.

[2] = tested on: H1299 cells; assay: XTT cytotoxicity of peptides, peptide-CPT conjugates and CPT on H1299 cells; conditions: for cell viability relative to control untreated cells (IC50 could not be calculated): H1299, XTT; for IC50: Homo sapiens
Procedure: as §1, §2

[3] = Drug release / PDC breakdown in complete growth medium; assay type: in vitro ADME; conditions: RPMI and DMEM complete growth media, 37 °C, 0–72 h, LC–MS, triplicate
Procedure: PDC breakdown rates were determined as described elsewhere. Briefly, peptide-FITC and peptide–CPT conjugates were incubated at 37 °C in 1 mL of DMEM or RPMI full-growth medium for […], 3, 7, 24, 48, and 72 h. At each time point, 10 µL of the sample was taken and mixed with 25 µL ACN/H20 (1:1, v/v.). The samples were centrifuged at 1400 rpm for 15 min. Supernatants were collected, filtered, and analyzed by liquid chromatography–mass spectrometry (LC–MS).
The release rates of CPT from P6-CPT and P9-CPT were measured in RPMI and DMEM complete growth media at 37 °C for 0, 0.5, 3, 7, 24, 48, and 72 h according to the procedure. The degradation of the conjugates and the CPT release were analyzed by LC–MS. […] The conjugates degraded with a half-life of 6–7 h (Figure 8).

[4] = target: T1, EGFR on H1299 cells (Homo sapiens, UniProt P00533); assay: Competitive binding assay with EGF by FACS; assay type: cell-based; conditions: H1299, 2.5 µM FITC-labeled peptides with or without 80 nM EGF, 4 °C 1 h then 37 °C 15 min, duplicate
T1 construct: H1299, H1975, and DKMG cells were characterized by cell surface overexpression of EGFR; endogenous in cells; host or cells: H1299 cells (ATCC)
Procedure: H1299 and DKMG cell lines were cultured in a complete RPMI growth medium in a 6-well plate overnight, until 80% confluent. Pre-incubation was performed with a blocking buffer consisting of 5 mg/mL BSA in PBS, pH 7.4, at 4 °C for 30 min. Then, cells were washed twice in PBS and incubated with 2.5 µM of FITC-labeled peptides with or without 80 nM EGF at 4 °C for 1 h. The cells were then incubated for 15 min at 37 °C under 5% CO2 to allow for peptide internalization. The cells were washed twice by centrifugation at 265× g for 5 min and analyzed by flow cytometry.
Figure 3 Competitive uptake of P3, P4, P5, P6, P9, and P11 peptides by FACS. Fluorescence was measured for H1299 cells (30,000 cells) after incubation with (2.5 µM) P3–P6, P9, and P11 by FITC-labeled peptides in the absence or presence of 80 nM of the EGF protein. The experiments were performed in duplicate. For each sample, the mean ± SD is shown (** p < 0.01, *** p < 0.001).

[5] = 6 h exposure then 24 h drug-free medium (6h24h), 0.5–50 µM
[6] = H1299, first protocol (6 h preincubation, then up to 48 h), XTT

## CC[C@@]1(O)C(=O)OCc2c1cc1n(c2=O)Cc2cc3ccccc3nc2-1 [CPT, camptothecin]
[1]; [5]
  cell viability relative to control untreated cells (IC50 could not be calculated): >50% *
[1]; 6 h exposure then 48 h in drug-free medium (6h48h), 0.5–50 µM
  IC50: 8.5 ± 1 µM
[1]; continuous exposure 24 h
  IC50: 25 ± 1.3 µM
[1]; continuous exposure 48 h
  cell viability relative to control untreated cells (IC50 could not be calculated): <50% **
[1]; continuous exposure 72 h
  cell viability relative to control untreated cells (IC50 could not be calculated): <40% **
[2]; [5]
  cell viability relative to control untreated cells (IC50 could not be calculated): >50% *
[2]; continuous exposure 48 h
  cell viability relative to control untreated cells (IC50 could not be calculated): <45%
[2]; continuous exposure 72 h
  cell viability relative to control untreated cells (IC50 could not be calculated): <15%
[2]; NCI-H1299
  IC50: 6.7 ± 1.8 µM
[2]; NCI-H1299, 24 h
  IC50: 54.8 ± 2 µM

## CC[C@H](C)[C@@H]1NC(=O)[C@H](Cc2ccc(O)cc2)NC(=O)[C@H](CO)NC(=O)CNC(=O)[C@@H]2CCCN2C(=O)[C@H](C(C)C)NC(=O)[C@H](Cc2cnc[nH]2)NC(=O)[C@@H](NC(=O)CCCNC(=O)O[C@]2(CC)C(=O)OCc3c2cc2n(c3=O)Cc3cc4ccccc4nc3-2)CSSC[C@@H](C(N)=O)NC1=O [P6-CPT] ({Camptothecin(20S-OCO)-GABA}-CHVPGSYIC-NH2; disulfide 1-9)
[3]
  half-life of conjugate degradation (CPT release): 6 to 7 h
[2]; [6]
  cytotoxic effect (in words): exhibited cytotoxic effects after 48 h

## CC[C@H](C)[C@@H]1NC(=O)[C@H](Cc2ccc(O)cc2)NC(=O)[C@H](CO)NC(=O)CNC(=O)[C@@H]2CCCN2C(=O)[C@H](C(C)C)NC(=O)[C@H](Cc2c[nH]cn2)NC(=O)[C@@H](N)CSSC[C@@H](C(=O)O)NC1=O [P6] (H-CHVPGSYIC-OH; disulfide 1-9)
[4]
  competition of EGF with peptide uptake: better competition with EGF compared to P11
[2]
  cytotoxic effect (in words): not toxic

## CC[C@@]1(OC(=O)NCCCC(=O)N[C@H]2CSSC[C@@H](C(N)=O)NC(=O)[C@H](Cc3ccc(O)cc3)NC(=O)[C@H](CO)NC(=O)[C@H](CCC(N)=O)NC(=O)[C@H](CCSC)NC(=O)[C@H](C)NC(=O)[C@H](CC(N)=O)NC(=O)[C@H](C(C)C)NC2=O)C(=O)OCc2c1cc1n(c2=O)Cc2cc3ccccc3nc2-1 [P9-CPT] ({Camptothecin(20S-OCO)-GABA}-CVNAMQSYC-NH2; disulfide 1-9; C-terminus assumed)
[1]; 6 h exposure then 48 h
  IC50 compared to free CPT: four-fold higher
[1]
  effect on cell viability (in words): did not affect cell viability
[3]
  half-life of conjugate degradation (CPT release): 6 to 7 h
[2]; [6]
  cytotoxic effect (in words): exhibited cytotoxic effects after 48 h

## CSCC[C@@H]1NC(=O)[C@H](C)NC(=O)[C@H](CC(N)=O)NC(=O)[C@H](C(C)C)NC(=O)[C@@H](N)CSSC[C@@H](C(=O)O)NC(=O)[C@H](Cc2ccc(O)cc2)NC(=O)[C@H](CO)NC(=O)[C@H](CCC(N)=O)NC1=O [P9] (H-CVNAMQSYC-OH; disulfide 1-9)
[1]
  effect on cell viability (in words): did not affect cell viability
[4]
  competition of EGF with peptide uptake: EGF significantly competed; also recorded: better competition with EGF compared to P11
[2]
  cytotoxic effect (in words): not toxic

## CAQYTPGRC (disulfide 1-9) [P11]
[4]
  competition of EGF with peptide uptake: EGF significantly competed
